Measured values taken from patent publication US4221805A, “Method of inducing platelet antiaggregation activity” (priority 1978, dated 1980).

How the values were obtained:
[1] = system: human PRP (Platelet Rich Plasma), platelet aggregation induced by ADP; assay: In vitro platelet antiaggregation activity (Born method, ADP-induced); assay type: cell-based; details: Platelet, ADP 10^-3 mM
Method: The method described by Born (Nature, 194, 927, 1962) was followed for this test, based on the increase in the platelet aggregation induced by ADP. The experiment was conducted using a human PRP (Platelet Rich Plasma) pool from four healthy volunteers who had not taken any drugs for ten days. The PRP was adjusted to 280,000±20,000 and kept at ambient temperature for the entire duration of the test.
400 μl of PRP and 100 μl of MRAP2 dissolved in a physiological solution and adjusted to a pH of 7.4 were placed in plastic test tubes. Three doses of the drug in question (0.181, 0.904 and 1.818 mg/ml) were used.
Three dilutions of aspirin were prepared under the same conditions for use as a comparison drug. Two minutes after contact between the drug and PRP, the test tube was inserted into the aggregometer cell (EEI, Model 169 with Corning Recorder Mod.840). After 60 seconds, ADP (10^-3 mM) was added and the aggregation was recorded. In calculating the antiaggregation activity, reference was made to the maximum amplitude of the aggregation curved obtained with ADP. Assuming this amplitude to be 100, the amplitudes of the curves obtained with the various doses of MRAP2 and aspirin were calculated as a percentage.

platelet aggregation = assay: In vivo platelet antiaggregation activity; set-up: species or system male rats, Wistar strain; details: rats, single oral dose 3 mg/kg
Method: This experiment was carried out on male rats of the Wistar strain having a weight of 320±20 grams. Both the MRAP2 and the aspirin (used as a comparison drug) were dissolved in a physiological solution, and the solutions, adjusted to pH 7.4, were administered orally in doeses of 3 mg/kg to two groups of three rats each. […] The concentration of the solution was adjusted to contain 100 mg of MRAP2 per ml. Blood samples were drawn from each animal 72 and 120 hours after treatment, for checking the platelet aggregation. In calculating the activity, the previous method was used (the average of the three maximum amplitudes of the curves obtained with the untreated rats was given the control figure of 100%).

stomach (gastric lesion) = assay: Ulcerogenic activity in rats after a single administration; assay type: in vivo, male albino rats, Wistar strain; details: rat, in vivo, po
Method: The ulcerogenic activity of MRAP2 was tested both after a single administration of the drug, and after prolonged administration.
In these tests, a total of 70 male albino rats of Wistar strain were used, having a weight of 200±20 grams.
The MRAP2 was administered diluted in tap water.
40 rats, fasted for 18 hours before the experiment, were divided into four batches of ten animals and treated orally as follows:
3rd group: MRAP2 (50 mg/kg)
4th group: MRAP2 (125 mg/kg).
The animals were killed after six hours. The stomach was withdrawn and the gastric lesion index was evaluated in terms of an arbitrary scale of values lying between 0. and 7 based on previous models proposed by other authors.
Furthermore, the treatment was randomised in order to eliminate any possible polarisation of the data.
The points given for gastric ulcerative lesions were as follows:
(1) hyperaemia or slight capillary obstruction; or slight loss of the epithelium; or some petechiae even with pale mucosa without hyperaemia;
(2) diffuse capillary obstructions or numerous petechiae; or diffuse loss of the epithelium; of a few surface lesions;
(3) strong submucosa haemorrhage; or many petechiae and small surface lesions; or much anaemic mucosa (yellowish colour); or up to three small ulcers;
(4) general pattern as in the previous numbers, plus up to ten small ulcers; or long erosions; or up to three medium sized ulcers;
(5) pattern as in number 4, with up to 15 small ulcers; or up to 6 large ulcers;
(6) pattern as previously, with up to ten large ulcers, plus small ulcers;
(7) pattern as previously, plus up to ten large ulcers and small ulcers; cases of perforated ulcers.

SMILES | inhibition of platelet aggregation at 181 µg/mL ([1]; drug 0.181 mg/ml) [%] | activity at 181 µg/mL ([1]; drug 0.181 mg/ml, serum + ADP = 100) [%] | inhibition of platelet aggregation at 904 µg/mL ([1]; drug 0.904 mg/ml) [%] | activity at 904 µg/mL ([1]; drug 0.904 mg/ml, serum + ADP = 100) [%] | inhibition of platelet aggregation at 1818 µg/mL ([1]; drug 1.818 mg/ml) [%] | activity at 1818 µg/mL ([1]; drug 1.818 mg/ml, serum + ADP = 100) [%] | % platelet antiaggregation activity on day 3 (platelet aggregation; day 3 (72 hours)) [%] | % platelet aggregation on day 3 (platelet aggregation; day 3 (72 hours), controls = 100) [%] | % platelet antiaggregation activity on day 5 (platelet aggregation; day 5 (120 hours)) [%] | % platelet aggregation on day 5 (platelet aggregation; day 5 (120 hours), controls = 100) [%] | incidence of ulcerative lesions (in words) (stomach (gastric lesion))
CC(=O)Oc1ccccc1C(=O)O [aspirin, reference compound] | 5 | 95 | 63 | 37 | 74 | 26 | 25 | 75 | 25 | 75 | –
CCCCC1C(=O)N(c2ccccc2)N(c2ccccc2)C1=O [phenylbutazone, reference compound] | – | – | – | – | – | – | – | – | – | – | very marked
